≈ marks a conversion by molar mass, not a printed value.
Columns and labels:
[1] = system: Enterococcus faecalis (ATCC 29212); assay: Agar Well Diffusion Assay (K-B disks); type: cell-based; conditions: EFAECL; K-B disk, 25 uL, dilutions in DMSO; width of zone; one value per test date
Procedure: An Agar Well Diffusion Assay pilot evaluation of AB-101 BRM was conducted to seek an initial signal of the activity of AB-101 BRM against various bacteria. AB-101 BRM was tested against the following bacterial species: • Streptococcus pneumoniae (ATCC 49619) (SPNEU) Gram (+) • Streptococcus pyogenes (clinical isolate) (GABHS) Gram (+) • Enterococcus faecalis (ATCC 29212) (EFAECL) Gram (+) • Coagulase-negative Staphylococcus (clinical isolate) (CNS) Gram (+) • Escherichia coli (ATCC 25922) (EC) Gram (−) • Pseudomonas aeruginosa (ATCC 27853) (PAER) Gram (−) • Klebsiella pneumoniae (ATCC 700603) (KPNEU) Gram (−) • Staphylococcus aureus (ATCC […]) (SAUR) Gram (+) • Methicillin-resistant Staphylococcus aureus (ATCC 49476) (MRSA) Gram (+)
Isolates were subcultured the day before the Agar Well Diffusion Assay was performed. On the day of the assay, a bacterial suspension (0.08-0.12 MacFarland units) of each bacteria isolate was made in Trypticase Soy Broth (TSB), and these suspensions were used to plate a lawn of bacterial organisms on Mueller-Hinton agar or Mueller-Hinton sheep's blood agar. A control antibiotic Kirby-Bauer (K-B) disk plus K-B disks containing 25 uL of AB-101 dilutions were placed on the plates, and the plates were incubated overnight. The next day, the width of the zone of growth inhibition surrounding each K-B disk was recorded (in mm). […]

[2] = system: MSSA and MRSA strains (Mupirocin-resistant and Mupirocin-susceptible); assay: In vitro MIC, panel of MSSA and MRSA strains; type: cell-based, Staphylococcus aureus; conditions: for MIC: Staphylococcus aureus
Excerpt: (§1) Measures included the minimum inhibitory concentration (MIC) which is the lowest concentration of AB-101 that prevents visible growth of the bacterium or pathogen, and minimum bactericidal concentration (MBC) which is the lowest concentration of an antibacterial agent required to kill a bacterium.

[3] = system: MSSA and MRSA strains (Mupirocin-resistant and Mupirocin-susceptible); assay: In vitro MBC, panel of MSSA and MRSA strains; type: cell-based, Staphylococcus aureus; conditions: purified extract of taspine
Excerpt: as §1

[4] = ATCC 29213 / MRSA / MSSA, strain ATCC 29213, QC control

With `CC1(C)S[C@@H]2[C@H](NC(=O)[C@H](N)c3ccccc3)C(=O)N2[C@H]1C(=O)O` [AMP, Ampicillin] the “Zone of Inhibition (MM)” value [1] was “AMP 8 MM”.
With `COc1cccc(OC)c1C(=O)N[C@@H]1C(=O)N2[C@@H]1SC(C)(C)[C@@H]2C(=O)O` [Methicillin] the MIC [2, 4] was 1 to 2 µg/mL (≈ 2.63 to 5.26 µM).
Compound `C/C(=C\C(=O)OCCCCCCCCC(=O)O)C[C@@H]1OC[C@H](C[C@@H]2O[C@H]2[C@@H](C)[C@H](C)O)[C@@H](O)[C@H]1O` [Mupirocin] has an MIC [2, 4] of 0.25 to 0.5 µg/mL (≈ 0.499 to 0.999 µM), an MIC ([2]; strain 1674606, MupirocinR, MSSA) of over 256 µg/mL and an MIC ([2]; strain 1674607, MupirocinR, MRSA) of over 256 µg/mL. The MIC ([2]; strain CDC 227, MupirocinS, MRSA) was 0.25 to 0.5 µg/mL (≈ 0.499 to 0.999 µM), the MIC ([2]; strain CDC 462, MupirocinS, MSSA) was at most 0.25 µg/mL and the MIC ([2]; strain CDC 464, MupirocinS, MSSA) was at most 0.25 µg/mL. The MIC ([2]; strain CDC 484, MupirocinS, MSSA) was at most 0.25 µg/mL and the MIC ([2]; strain CDC 485, MupirocinS, MSSA) was at most 0.25 µg/mL.
In the case of `COc1ccc2c(=O)oc3c(OC)cc(CCN(C)C)c4c(=O)oc1c2c34` [Taspine, taspine], the “activity against MSSA and MRSA (MIC)” value ([2]; highest concentration tested 50% relative to AB-101 = 10 μg/mL) is reported as “does not have activity” and the “activity against MSSA and MRSA (MBC)” value [3] is reported as “does not have activity”.
In the case of Gentamicin [GM], the “Zone of Inhibition (MM)” value [1] is reported as “GM 5 MM”.

From patent US20220105147A1, “CROTON LECHLERI COMPOSITIONS FOR USE IN THE TOPICAL TREATMENT OF ACUTE BACTERIAL SKIN OR SKIN STRUCTURE INFECTION” (priority 2019, published 2022)
